# Test results taken from patent EP4458804A1, “METHOD FOR PRODUCING AN OBJECT, PHENALEN-1-ONE COMPOUND AND USE THEREOF” (TriOptoTec GmbH, priority 2023, dated 2024).
# Assay: Incorporation of photocatalysts into TPU films versus process time, absorption spectroscopy against blank film (Beispiele 7a-9b)
# Assay type: physicochemical
# Details: TPU Folie, Rezeptur 1; Beispiel 7b, Tabelle 41
# Description: Im nächsten Schritt wurde die Verwendbarkeit der verschiedene Photokatalysatorklassen, ausgewählt aus Phenalen-1-on-Derivaten, Curcumin-Derivaten und Porphycen-Derivaten, mit unterschiedlichen Eigenschaften - von neutral unpolar bis ionisch polar - auf Ihre Verwendbarkeit und Wirkung im Verfahren untersucht.
# Zur Beurteilung der optimalen Prozesszeit bei Einsatz der Photokatalysatoren, wurden TPU Folienstücke nach Beschreibung in Beispiel 4 zu je 1, 2, 5 und 10 min in den Imprägnierlösungen behandelt, gegebenenfalls auch 30 und 60 min bei undeutlichen Ergebnissen.
# Als Basisformulierung wurde Rezeptur 1 nach Beispiel 2 verwendet.
# Nach der angegebenen Prozesszeit wurden die Folie entnommen, mit Wasser gewaschen und für 1h bei 40°C getrocknet/abgelüftet.
# Die Folien wurden durch Absorptionsspektroskopie gegen ein Blank-Folienstück direkt vermessen, beim Maximum der Absorption des Photokatalysators. Dabei ergaben sich in Abhängigkeit der Prozesszeit folgende Werte, die in den Tabellen 40 bis
structure (smiles),measurement,value
CC(C)(O)c1cc[n+](CC2=Cc3cccc4cccc(c34)C2=O)cc1 [F-24b],Abs. 1 min,"0,185"
same,Abs. 2 min,"0,198"
same,Abs. 5 min,"0,257"
same,Abs. 10 min,"0,456"
